Read-outs that look alike come from different tables or passages of the source.
Key:
mouse P2X7 (mP2X7) = biological target: T1, mouse P2X7 (mP2X7) (Mus musculus, UniProt Q9Z1M0); assay: fura-2 intracellular calcium assay on HEK-293 stable cell line expressing mouse P2X7; format: cell-based; conditions: Mouse P2X7 (Table 1); mean in brackets, n = 3
T1 construct: expressed in transfected cells
T1 sequence (Q9Z1M0 1-595): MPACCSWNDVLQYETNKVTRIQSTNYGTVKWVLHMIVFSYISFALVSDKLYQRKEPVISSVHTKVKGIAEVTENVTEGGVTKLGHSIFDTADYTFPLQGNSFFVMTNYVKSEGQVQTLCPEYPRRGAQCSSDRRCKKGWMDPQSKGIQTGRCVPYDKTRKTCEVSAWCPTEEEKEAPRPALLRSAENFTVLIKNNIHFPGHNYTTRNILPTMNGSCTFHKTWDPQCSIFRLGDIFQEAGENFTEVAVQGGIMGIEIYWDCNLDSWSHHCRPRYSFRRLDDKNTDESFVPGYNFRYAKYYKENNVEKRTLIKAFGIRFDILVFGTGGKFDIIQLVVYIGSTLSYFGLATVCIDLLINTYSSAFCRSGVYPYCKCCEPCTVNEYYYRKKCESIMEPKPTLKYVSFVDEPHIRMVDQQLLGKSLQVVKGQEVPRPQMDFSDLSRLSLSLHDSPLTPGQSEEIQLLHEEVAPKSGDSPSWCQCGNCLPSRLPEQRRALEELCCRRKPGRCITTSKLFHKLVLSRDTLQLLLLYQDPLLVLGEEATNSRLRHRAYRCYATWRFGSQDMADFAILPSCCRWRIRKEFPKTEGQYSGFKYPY
Procedure: (§1) Genetically edited HEK-293 cells lacking P2Y2 receptors were used to generate stable cell lines expressing human P2X7 (hP2X7), mouse P2X7 (mP2X7), rat P2X7 (rP2X7), or mutants of the hP2X7 NAM site (F88A, M105A, and F103A). Transfection was performed using lipofectamine 2000 (Fisher Scientific), and cells were subjected to Geneticin (800 μg/mL) selection for 2–3 weeks. This was followed by single cell cloning by limiting dilution in 96-well plates. Individual clones were selected for further study based on ATP-induced TO-PRO-3 uptake on a BD Cytoflex flow cytometer. Cell lines were maintained in DMEM:F12 media supplemented with 10% fetal bovine serum (PanBiotech), penicillin and streptomycin (Fisher Scientific) and kept in a humidified incubator with 5% CO2. Stable P2X7-expressing cells were kept under Geneticin selection at a concentration of 400 μg/mL. Passaging was performed twice weekly using 0.25% Trypsin-EDTA (Fisher Scientific).
P2X7 responses were measured by monitoring intracellular calcium responses using fura-2AM loaded cells. Cells were plated at 2–2.5 × 10^4 cells/well the day before experiments in 96-well plates (NUNC) coated with 50 μg/mL poly-D-lysine (Merck Millipore). A loading buffer containing 2 μM fura-2AM (HelloBio) and 250 μM sulfinpyrazone (Merck Millipore) in a low divalent buffer (145 mM NaCl, 5 mM KCl, 0.2 mM CaCl2, 10 mM HEPES, 13 mM glucose, pH 7.3) was added to cells for 45 min at 37 °C. After loading, the buffer was removed and replaced with calcium-containing extracellular solution (145 mM NaCl, 5 mM KCl, 2 mM CaCl2, 10 mM HEPES, 13 mM glucose, pH 7.3). Responses were measured using a Flexstation 3 plate reader (Molecular Devices) with dual excitation wavelengths of 340 and 380 nm and single emission wavelength of 510 nm. The sample interval was 3.5 s, and each well was recorded for 180 s. Fura-2 ratios were calculated in Softmax Pro v5.4; zero baseline was applied, and responses were measured as normalized area under the curve (AUC). […]

rat P2X7 (rP2X7) = biological target: T2, rat P2X7 (rP2X7) (Rattus norvegicus, UniProt Q64663); assay: fura-2 intracellular calcium assay on HEK-293 stable cell line expressing rat P2X7; format: cell-based; conditions: Rat P2X7 (Table 1), n = 3
T2 construct: expressed in transfected cells
T2 sequence (Q64663 1-595): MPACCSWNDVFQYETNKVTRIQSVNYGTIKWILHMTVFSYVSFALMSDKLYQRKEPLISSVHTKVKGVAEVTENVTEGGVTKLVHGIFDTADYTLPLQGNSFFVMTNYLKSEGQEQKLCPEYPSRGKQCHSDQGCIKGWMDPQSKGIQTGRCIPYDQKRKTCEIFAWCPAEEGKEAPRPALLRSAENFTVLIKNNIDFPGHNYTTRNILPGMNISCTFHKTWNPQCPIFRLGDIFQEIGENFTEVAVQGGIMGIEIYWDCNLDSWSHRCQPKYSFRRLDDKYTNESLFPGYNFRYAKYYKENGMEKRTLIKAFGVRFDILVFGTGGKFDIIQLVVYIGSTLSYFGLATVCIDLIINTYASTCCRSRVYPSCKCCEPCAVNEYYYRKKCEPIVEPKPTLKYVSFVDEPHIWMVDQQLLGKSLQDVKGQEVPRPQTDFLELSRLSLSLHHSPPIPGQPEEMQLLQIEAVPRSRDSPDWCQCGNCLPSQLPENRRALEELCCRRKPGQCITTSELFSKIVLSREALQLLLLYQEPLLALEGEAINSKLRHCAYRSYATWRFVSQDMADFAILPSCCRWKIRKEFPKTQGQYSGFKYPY
Procedure: as §1
P2X7 responses were measured by monitoring intracellular calcium responses using fura-2AM loaded cells. Cells were plated at 2–2.5 × 10^4 cells/well the day before experiments in 96-well plates (NUNC) coated with 50 μg/mL poly-D-lysine (Merck Millipore). A loading buffer containing 2 μM fura-2AM (HelloBio) and 250 μM sulfinpyrazone (Merck Millipore) in a low divalent buffer (145 mM NaCl, 5 mM KCl, 0.2 mM CaCl2, 10 mM HEPES, 13 mM glucose, pH 7.3) was added to cells for 45 min at 37 °C. After loading, the buffer was removed and replaced with calcium-containing extracellular solution (145 mM NaCl, 5 mM KCl, 2 mM CaCl2, 10 mM HEPES, 13 mM glucose, pH 7.3). Responses were measured using a Flexstation 3 plate reader (Molecular Devices) with dual excitation wavelengths of 340 and 380 nm and single emission wavelength of 510 nm. The sample interval was 3.5 s, and each well was recorded for 180 s. Fura-2 ratios were calculated in Softmax Pro v5.4; zero baseline was applied, and responses were measured as normalized area under the curve (AUC). Dose inhibition curves were plotted using GraphPad Prism v6 nonlinear regression (three parameter fit) and log IC50 values reported.

IC50 (mouse P2X7 (mP2X7)): 524 nM
IC50 (rat P2X7 (rP2X7); log IC50 ± standard error, read-out: Log IC50 (converted)): 52.5 nM
IC50 (rat P2X7 (rP2X7); mean in brackets, read-out: mean IC50): 53.1 nM
Structure (SMILES): O=C(CC12CC3CC(CC(C3)C1)C2)Nc1cccc2nc(NCCNCCO)ccc12 [AZ10606120]

Reference: article PMC12426935, “On-Cell Saturation Transfer Difference NMR Spectroscopy on Ion Channels: Characterizing Negative Allosteric Modulator Binding Interactions of P2X7” (Journal of the American Chemical Society, 2025)
